From PubChem BioAssay AID342 (DTP/NCI, 2004)
Several values for one entry are separate records, joined by “and”; a condition that tells them apart may be missing. Equal entries are not always repeated.

Tested on: Swiss mice, Sarcoma 180 sc, mean tumor weight T/C
Assay: NCI In Vivo Anticancer Drug Screen. Data for tumor model Sarcoma 180 (subcutaneous) in Swiss mice
Settings: endpoint: mean tumor weight, higher = larger tumour
Method in brief: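 Readout is the ratio of treated-group measurement to vehicle-control measurement (T/C), based on survival or tumor size in mice carrying transplanted tumors.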

[1] = dose: 100.0 mg/kg/injection, schedule: Q01DX007 (ip), vehicle: saline
[2] = dose: 125.0 mg/kg/injection, schedule: Q01DX007 (ip), vehicle: carboxymethylcellulose (CMC)
[3] = dose: 85.0 mg/kg/injection, schedule: Q01DX007 (sc), vehicle: steriod suspending solution
[4] = dose: 300.0 mg/kg/injection, schedule: Q01DX007 (sc), vehicle: steriod suspending solution
[5] = dose: 600.0 mg/kg/injection, schedule: Q01DX007 (sc), vehicle: steriod suspending solution

## Nc1ncnc2nc[nH]c12
dose: 25.0 mg/kg/injection, schedule: Q01DX007 (ip), vehicle: saline
  T/C: 104 % of control
dose: 50.0 mg/kg/injection, schedule: Q01DX007 (ip), vehicle: saline
  T/C: 87 % of control
[1]
  T/C: 119 % of control
dose: 200.0 mg/kg/injection, schedule: Q01DX007 (ip), vehicle: saline
  T/C: 57 % of control

## CCN(CC)P(=O)(N1CC1)N1CC1
dose: 1.0 mg/kg/injection, schedule: Q#A X014 (ip), vehicle: methylcellulose (MC)
  T/C: 64 % of control
dose: 1.0 mg/kg/injection, schedule: Q#A X014 (ip), vehicle: saline
  T/C: 90 % of control and 92 % of control
dose: 1.5 mg/kg/injection, schedule: Q#A X014 (ip), vehicle: methylcellulose (MC)
  T/C: 60 % of control
dose: 2.0 mg/kg/injection, schedule: Q#A X014 (ip), vehicle: methylcellulose (MC)
  T/C: 82 % of control
dose: 3.0 mg/kg/injection, schedule: Q#A X014 (ip), vehicle: saline
  T/C: 19 % of control and 38 % of control
dose: 4.0 mg/kg/injection, schedule: Q01DX007 (ip), vehicle: saline
  T/C: 48 % of control

## CC(=O)Nc1cc2c(cc1Cl)C(=O)c1cc(Cl)ccc1-2
dose: 55.0 mg/kg/injection, schedule: Q01DX007 (ip), vehicle: carboxymethylcellulose (CMC)
  T/C: 75 % of control
dose: 83.0 mg/kg/injection, schedule: Q01DX007 (ip), vehicle: carboxymethylcellulose (CMC)
  T/C: 53 % of control
[2]
  T/C: 39 % of control
dose: 187.5 mg/kg/injection, schedule: Q01DX007 (ip), vehicle: carboxymethylcellulose (CMC)
  T/C: 26 % of control

## CC(=O)OCC1=CC2OC(=O)C3=COC(OC4OC(CO)C(O)C(O)C4O)C1C32 (stereo not drawn)
dose: 220.0 mg/kg/injection, schedule: Q01DX007 (ip), vehicle: carboxymethylcellulose (CMC)
  T/C: 67 % of control

## CCCCn1cnc2c(SSc3ncnc4c3ncn4CCCC)ncnc21
dose: 53.0 mg/kg/injection, schedule: Q01DX007 (ip), vehicle: carboxymethylcellulose (CMC)
  T/C: 82 % of control
dose: 53.0 mg/kg/injection, schedule: Q01DX007 (ip), vehicle: other
  T/C: 62 % of control
dose: 83.0 mg/kg/injection, schedule: Q01DX007 (ip), vehicle: other
  T/C: 65 % of control
dose: 83.0 mg/kg/injection, schedule: Q01DX007 (ip), vehicle: saline
  T/C: 71 % of control
dose: 125.0 mg/kg/injection, schedule: Q01DX007 (ip), vehicle: other
  T/C: 50 % of control
dose: 125.0 mg/kg/injection, schedule: Q01DX007 (ip), vehicle: saline
  T/C: 37 % of control
dose: 187.0 mg/kg/injection, schedule: Q01DX007 (ip), vehicle: other
  T/C: 30 % of control

## CC(=O)[C@@]1(O)CC[C@H]2[C@@H]3C[C@H](C)C4=CC(=O)C=C[C@]4(C)[C@@]3(F)[C@@H](O)C[C@@]21C
dose: 6.9 mg/kg/injection, schedule: Q01DX007 (sc), vehicle: steriod suspending solution
  T/C: 102 % of control
dose: 16.0 mg/kg/injection, schedule: Q01DX007 (sc), vehicle: steriod suspending solution
  T/C: 76 % of control
dose: 17.0 mg/kg/injection, schedule: Q01DX007 (sc), vehicle: steriod suspending solution
  T/C: 60 % of control
dose: 24.0 mg/kg/injection, schedule: Q01DX007 (sc), vehicle: steriod suspending solution
  T/C: 78 % of control
dose: 26.0 mg/kg/injection, schedule: Q01DX007 (sc), vehicle: steriod suspending solution
  T/C: 19 % of control and 23 % of control
dose: 27.5 mg/kg/injection, schedule: Q01DX007 (sc), vehicle: steriod suspending solution
  T/C: 65 % of control
dose: 27.5 mg/kg/injection, schedule: Q#A X014 (sc), vehicle: steriod suspending solution
  T/C: 33 % of control
dose: 36.5 mg/kg/injection, schedule: Q01DX007 (sc), vehicle: steriod suspending solution
  T/C: 57 % of control
dose: 40.0 mg/kg/injection, schedule: Q01DX007 (sc), vehicle: steriod suspending solution
  T/C: 17 % of control and 23 % of control and 36 % of control
dose: 41.5 mg/kg/injection, schedule: Q#A X014 (sc), vehicle: steriod suspending solution
  T/C: 40 % of control
dose: 60.0 mg/kg/injection, schedule: Q01DX007 (sc), vehicle: steriod suspending solution
  T/C: 29 % of control
dose: 62.5 mg/kg/injection, schedule: Q#A X014 (sc), vehicle: steriod suspending solution
  T/C: 34 % of control and 45 % of control
dose: 83.0 mg/kg/injection, schedule: Q01DX007 (sc), vehicle: steriod suspending solution
  T/C: 38 % of control
[3]
  T/C: 34 % of control
dose: 90.0 mg/kg/injection, schedule: Q01DX007 (sc), vehicle: steriod suspending solution
  T/C: 18 % of control
dose: 125.0 mg/kg/injection, schedule: Q01DX007 (sc), vehicle: steriod suspending solution
  T/C: 17 % of control
dose: 135.0 mg/kg/injection, schedule: Q01DX007 (sc), vehicle: steriod suspending solution
  T/C: 19 % of control
dose: 188.0 mg/kg/injection, schedule: Q01DX007 (sc), vehicle: steriod suspending solution
  T/C: 46 % of control
dose: 282.0 mg/kg/injection, schedule: Q01DX007 (sc), vehicle: steriod suspending solution
  T/C: 25 % of control and 26 % of control
[4]
  T/C: 34 % of control
dose: 423.0 mg/kg/injection, schedule: Q01DX007 (sc), vehicle: steriod suspending solution
  T/C: 20 % of control and 39 % of control
dose: 500.0 mg/kg/injection, schedule: Q01DX007 (sc), vehicle: steriod suspending solution
  T/C: 3 % of control
[5]
  T/C: 30 % of control
dose: 630.0 mg/kg/injection, schedule: Q01DX007 (sc), vehicle: steriod suspending solution
  T/C: 15 % of control
dose: 900.0 mg/kg/injection, schedule: Q01DX007 (sc), vehicle: steriod suspending solution
  T/C: 27 % of control
dose: 945.0 mg/kg/injection, schedule: Q01DX007 (sc), vehicle: steriod suspending solution
  T/C: 22 % of control
dose: 1400.0 mg/kg/injection, schedule: Q01DX007 (sc), vehicle: steriod suspending solution
  T/C: 14 % of control

## CCCCNP(=O)(N1CC1)N1CC1
dose: 0.15 mg/kg/injection, schedule: Q#A X014 (ip), vehicle: saline
  T/C: 18 % of control
dose: 0.25 mg/kg/injection, schedule: Q#A X014 (ip), vehicle: saline
  T/C: 7 % of control

## CNNCc1ccc(C(=O)NC(N)=O)cc1
[1]
  T/C: 40 % of control
[2]
  T/C: 38 % of control
dose: 148.0 mg/kg/injection, schedule: Q01DX007 (ip), vehicle: saline
  T/C: 42 % of control
dose: 222.0 mg/kg/injection, schedule: Q01DX007 (ip), vehicle: saline
  T/C: 18 % of control
dose: 250.0 mg/kg/injection, schedule: Q01DX007 (ip), vehicle: carboxymethylcellulose (CMC)
  T/C: 30 % of control
dose: 333.0 mg/kg/injection, schedule: Q01DX007 (ip), vehicle: saline
  T/C: 37 % of control

## COc1ccc(-c2ccc(OC)c(OC)c2OC)c(N)c1
dose: 65.0 mg/kg/injection, schedule: Q01DX007 (ip), vehicle: methylcellulose (MC)
  T/C: 98 % of control
dose: 125.0 mg/kg/injection, schedule: Q01DX007 (ip), vehicle: methylcellulose (MC)
  T/C: 97 % of control
dose: 250.0 mg/kg/injection, schedule: Q01DX007 (ip), vehicle: methylcellulose (MC)
  T/C: 87 % of control
dose: 500.0 mg/kg/injection, schedule: Q01DX007 (ip), vehicle: methylcellulose (MC)
  T/C: 63 % of control
dose: 625.0 mg/kg/injection, schedule: Q01DX007 (ip), vehicle: methylcellulose (MC)
  T/C: 58 % of control
dose: 750.0 mg/kg/injection, schedule: Q01DX007 (ip), vehicle: methylcellulose (MC)
  T/C: 86 % of control

## CC1C[C@@H]2[C@H]([C@@H](O)C[C@@]3(C)[C@H]2CC[C@]3(O)C(=O)CF)[C@@]2(C)CCC(=O)C=C12 (stereo partly drawn)
dose: 5.2 mg/kg/injection, schedule: Q01DX007 (sc), vehicle: steriod suspending solution
  T/C: 106 % of control
dose: 10.5 mg/kg/injection, schedule: Q01DX007 (sc), vehicle: steriod suspending solution
  T/C: 105 % of control
dose: 21.2 mg/kg/injection, schedule: Q01DX007 (sc), vehicle: steriod suspending solution
  T/C: 81 % of control
dose: 42.5 mg/kg/injection, schedule: Q01DX007 (sc), vehicle: steriod suspending solution
  T/C: 45 % of control
dose: 62.0 mg/kg/injection, schedule: Q#A X014 (sc), vehicle: steriod suspending solution
  T/C: 55 % of control and 57 % of control
[3]
  T/C: 25 % of control
dose: 93.5 mg/kg/injection, schedule: Q#A X014 (sc), vehicle: steriod suspending solution
  T/C: 36 % of control and 41 % of control and 50 % of control
dose: 210.75 mg/kg/injection, schedule: Q#A X014 (sc), vehicle: steriod suspending solution
  T/C: 38 % of control and 52 % of control
[4]
  T/C: 26 % of control
[5]
  T/C: 20 % of control
